Measured values taken from ChEMBL document CHEMBL5303573, “Mapping human microbiome drug metabolism by gut bacteria and their genes” (Nature, 2019).

How the values were obtained:
[1] = The drug is tested on Collinsella aerofaciens strain: ATCC25986 for biotransformation. The drug concentrations were measured before and after a 12-h incubation by liquid-chromatography-coupled mass spectrometry (LC–MS); details: 2 µM
[2] = The drug is tested on Collinsella intestinalis strain: DSM13280 for biotransformation. The drug concentrations were measured before and after a 12-h incubation by liquid-chromatography-coupled mass spectrometry (LC–MS); details: 2 µM
[3] = The drug is tested on Bacteroides finegoldii strain: DSM17565 for biotransformation. The drug concentrations were measured before and after a 12-h incubation by liquid-chromatography-coupled mass spectrometry (LC–MS); details: 2 µM
[4] = The drug is tested on Parabacteroides merdae strain: ATCC43184 for biotransformation. The drug concentrations were measured before and after a 12-h incubation by liquid-chromatography-coupled mass spectrometry (LC–MS); details: 2 µM
[5] = The drug is tested on Anaerotruncus colihominis strain: DSM17241 for biotransformation. The drug concentrations were measured before and after a 12-h incubation by liquid-chromatography-coupled mass spectrometry (LC–MS); details: 2 µM
[6] = The drug is tested on Clostridium sporogenes strain: ATCC15579 for biotransformation. The drug concentrations were measured before and after a 12-h incubation by liquid-chromatography-coupled mass spectrometry (LC–MS); details: 2 µM
[7] = The drug is tested on Clostridium symbiosum strain: ATCC14940 for biotransformation. The drug concentrations were measured before and after a 12-h incubation by liquid-chromatography-coupled mass spectrometry (LC–MS); details: 2 µM
[8] = The drug is tested on Eubacterium rectale strain: ATCC33656 for biotransformation. The drug concentrations were measured before and after a 12-h incubation by liquid-chromatography-coupled mass spectrometry (LC–MS); details: agathobacter rectalis, 2 µM
[9] = The drug is tested on Edwardsiella tarda strain: ATCC23685 for biotransformation. The drug concentrations were measured before and after a 12-h incubation by liquid-chromatography-coupled mass spectrometry (LC–MS); details: 2 µM
[10] = The drug is tested on Escherichia coli strain: BW25113 for biotransformation. The drug concentrations were measured before and after a 12-h incubation by liquid-chromatography-coupled mass spectrometry (LC–MS); details: 2 µM
[11] = The drug is tested on Providencia stuartii strain: ATCC25827 for biotransformation. The drug concentrations were measured before and after a 12-h incubation by liquid-chromatography-coupled mass spectrometry (LC–MS); details: 2 µM
[12] = bacteroides eggerthii, 12 h, 2 µM
Description: The drug is tested on Bacteroides eggerthii strain: DSM20697 for biotransformation. The drug concentrations were measured before and after a 12-h incubation by liquid-chromatography-coupled mass spectrometry (LC–MS)

[13] = bacteroides fragilis, 12 h, 2 µM
Description: The drug is tested on Bacteroides fragilis strain: DS-208 for biotransformation. The drug concentrations were measured before and after a 12-h incubation by liquid-chromatography-coupled mass spectrometry (LC–MS)

[14] = parabacteroides johnsonii, 12 h, 2 µM
Description: The drug is tested on Parabacteroides johnsonii strain: DSM18315 for biotransformation. The drug concentrations were measured before and after a 12-h incubation by liquid-chromatography-coupled mass spectrometry (LC–MS)

[15] = enterocloster bolteae, 12 h, 2 µM
Description: The drug is tested on Clostridium bolteae strain: ATCCBAA-613 for biotransformation. The drug concentrations were measured before and after a 12-h incubation by liquid-chromatography-coupled mass spectrometry (LC–MS)

[16] = roseburia intestinalis, 12 h, 2 µM
Description: The drug is tested on Roseburia intestinalis strain: L1-82 for biotransformation. The drug concentrations were measured before and after a 12-h incubation by liquid-chromatography-coupled mass spectrometry (LC–MS)

[17] = limosilactobacillus reuteri cf48-3a, 12 h, 2 µM
Description: The drug is tested on Lactobacillus reuteri CF48-3A strain: BEI HM-102 for biotransformation. The drug concentrations were measured before and after a 12-h incubation by liquid-chromatography-coupled mass spectrometry (LC–MS)

[18] = The drug is tested on Bacteroides pectinophilus strain: ATCC43243 for biotransformation. The drug concentrations were measured before and after a 12-h incubation by liquid-chromatography-coupled mass spectrometry (LC–MS); details: 2 µM

SMILES	Bacterial Biotransformation [1]	Bacterial Biotransformation [2]	Bacterial Biotransformation [3]	Bacterial Biotransformation [4]	Bacterial Biotransformation [5]	Bacterial Biotransformation [6]	Bacterial Biotransformation [7]	Bacterial Biotransformation [8]	Bacterial Biotransformation [9]	Bacterial Biotransformation [10]	Bacterial Biotransformation [11]	Bacterial Biotransformation [12]	Bacterial Biotransformation [13]	Bacterial Biotransformation [14]	Bacterial Biotransformation [15]	Bacterial Biotransformation [16]	Bacterial Biotransformation [17]	Bacterial Biotransformation [18]
c1ccc([C@H]2CN3CCSC3=N2)cc1 [LEVAMISOLE]	Compound metabolized	Compound NOT metabolized	Compound NOT metabolized	Compound NOT metabolized	Compound metabolized	Compound metabolized	Compound metabolized	Compound NOT metabolized	Compound metabolized	Compound metabolized	Compound metabolized	Compound metabolized	Compound metabolized	Compound metabolized	Compound metabolized	Compound NOT metabolized	–	–
CCOC(=O)[C@H](CCc1ccccc1)N[C@@H](C)C(=O)N1[C@H](C(=O)O)C[C@H]2CCCC[C@@H]21 [TRANDOLAPRIL]	Compound NOT metabolized	–	Compound NOT metabolized	Compound NOT metabolized	–	Compound metabolized	Compound NOT metabolized	Compound NOT metabolized	Compound NOT metabolized	–	Compound NOT metabolized	Compound metabolized	Compound metabolized	–	Compound metabolized	Compound NOT metabolized	Compound NOT metabolized	–
CCCC(=O)Nc1ccc(OCC(O)CNC(C)C)c(C(C)=O)c1 (stereo not drawn) [ACEBUTOLOL]	Compound NOT metabolized	Compound NOT metabolized	Compound NOT metabolized	Compound NOT metabolized	Compound NOT metabolized	Compound NOT metabolized	Compound NOT metabolized	Compound NOT metabolized	Compound NOT metabolized	Compound NOT metabolized	Compound NOT metabolized	Compound NOT metabolized	–	Compound NOT metabolized	Compound NOT metabolized	Compound NOT metabolized	Compound NOT metabolized	Compound NOT metabolized
CN(C)CCc1c[nH]c2ccc(CS(=O)(=O)N3CCCC3)cc12 [ALMOTRIPTAN]	Compound NOT metabolized	Compound NOT metabolized	Compound NOT metabolized	Compound NOT metabolized	Compound NOT metabolized	Compound NOT metabolized	Compound NOT metabolized	Compound NOT metabolized	Compound NOT metabolized	–	Compound NOT metabolized	Compound NOT metabolized	Compound NOT metabolized	–	Compound NOT metabolized	Compound NOT metabolized	–	Compound NOT metabolized
CC(C)NCC(O)COc1ccc(CC(N)=O)cc1 (stereo not drawn) [ATENOLOL]	Compound NOT metabolized	Compound NOT metabolized	Compound NOT metabolized	–	Compound NOT metabolized	Compound NOT metabolized	Compound NOT metabolized	Compound NOT metabolized	Compound NOT metabolized	Compound NOT metabolized	Compound NOT metabolized	Compound NOT metabolized	–	Compound NOT metabolized	Compound NOT metabolized	Compound NOT metabolized	Compound NOT metabolized	Compound NOT metabolized
CC(C)NCC(O)COc1ccc(COCCOC(C)C)cc1.CC(C)NCC(O)COc1ccc(COCCOC(C)C)cc1.O=C(O)/C=C/C(=O)O (stereo not drawn) [BISOPROLOL FUMARATE]	Compound NOT metabolized	Compound NOT metabolized	Compound NOT metabolized	Compound NOT metabolized	Compound NOT metabolized	Compound NOT metabolized	Compound NOT metabolized	Compound NOT metabolized	Compound NOT metabolized	–	Compound NOT metabolized	Compound NOT metabolized	Compound NOT metabolized	Compound NOT metabolized	Compound NOT metabolized	Compound NOT metabolized	–	–
Clc1cccc(Cl)c1N=C1NCCN1 [CLONIDINE]	Compound NOT metabolized	Compound NOT metabolized	Compound NOT metabolized	Compound NOT metabolized	Compound NOT metabolized	Compound NOT metabolized	Compound NOT metabolized	Compound NOT metabolized	Compound NOT metabolized	Compound NOT metabolized	Compound NOT metabolized	–	Compound metabolized	Compound NOT metabolized	Compound NOT metabolized	Compound NOT metabolized	Compound NOT metabolized	Compound NOT metabolized
CCN(CC)CCNC(=O)c1ccc(NC(C)=O)cc1 [ACECAINIDE]	Compound NOT metabolized	Compound NOT metabolized	Compound NOT metabolized	–	Compound NOT metabolized	Compound NOT metabolized	Compound NOT metabolized	Compound NOT metabolized	Compound NOT metabolized	Compound NOT metabolized	–	–	Compound NOT metabolized	Compound NOT metabolized	Compound NOT metabolized	Compound NOT metabolized	–	Compound NOT metabolized
CC(C)NCC(O)COc1ccc(CCOCC2CC2)cc1 (stereo not drawn) [BETAXOLOL]	Compound NOT metabolized	Compound NOT metabolized	Compound NOT metabolized	Compound NOT metabolized	Compound NOT metabolized	Compound NOT metabolized	Compound NOT metabolized	Compound NOT metabolized	Compound NOT metabolized	Compound NOT metabolized	Compound NOT metabolized	Compound NOT metabolized	Compound NOT metabolized	–	Compound NOT metabolized	Compound NOT metabolized	Compound NOT metabolized	Compound NOT metabolized
CCN1CCCC1CNC(=O)c1cc(S(=O)(=O)CC)c(N)cc1OC (stereo not drawn) [AMISULPRIDE]	Compound NOT metabolized	Compound NOT metabolized	Compound NOT metabolized	Compound NOT metabolized	Compound NOT metabolized	Compound NOT metabolized	Compound NOT metabolized	Compound NOT metabolized	Compound NOT metabolized	Compound NOT metabolized	Compound NOT metabolized	Compound NOT metabolized	Compound NOT metabolized	Compound NOT metabolized	Compound NOT metabolized	Compound NOT metabolized	Compound NOT metabolized	Compound NOT metabolized
